From US20110046056A1, “APOA-1 PEPTIDE MIMETICS” (priority 2007, published 2011) come the findings set out here.

The experiment concerns the target T1, ABCA1 cholesterol transporter protein (Mus musculus, UniProt P41233).
T1 construct: endogenous in cells
Put plainly: ABCA1-dependent cholesterol efflux from RAW mouse macrophage cells (in vitro RCT assay). In kind it is cell-based. From the text: Peptides of the present invention were designed based on amphipathic properties and their abilities to solubilize phospholipids and promote cholesterol efflux. The most direct functional measurement of efficacy for the ApoA-1 peptide mimetic is its capacity to improve the efflux of cholesterol from the cell. The RAW and J774 cell lines are reliable mouse macrophage cell lines frequently used in the art for this purpose. […] The RAW cell line is preferred and recited in the description below.
In the present assay, the RAW cells are plated at 1.5×10^5 cells/200 μl/well/48-well plate in DMEM complete medium (with 10% FBS from INVITROGEN and 1% penicillin-streptomycin-glutamine from GIBCO) and ^3H-cholesterol at 5 μCi/ml. After 24 hours incubation in a moist 37° C. atmosphere with 5% CO2, the spent medium is removed, the cells are washed once with serum-free DMEM (0.1% fatty acid free bovine serum albumin replaces the FBS), and fresh serum-free medium (200 μl) is added to each well. After overnight incubation in the serum-free medium to allow the cellular cholesterol pools to equilibrate, the spent medium is removed, and fresh serum-free medium is added with/without CPT-cAMP (150 μM final). Eight-point serial titrations of the peptide/s being tested are added at this time (duplicate titrations in plain medium without cAMP and duplicate titrations in medium containing cAMP).
After 24 hours incubation in the various conditions, the medium is harvested from each well and 50 μl aliquots are counted. The cells are then lysed by adding 500 μl of HEPES/Triton lysis buffer to each well. The lysis is facilitated by freezing and thawing once. After thawing, the lysates are mixed well and 50 μl aliquots are counted.
The percent efflux of each peptide in each medium condition (±cAMP) is calculated by dividing the total counts in the medium by the sum of the total counts in the medium and lysate. The percent efflux seen with plain medium is subtracted from the percent efflux seen with the cAMP-stimulated efflux to yield the reported ABCA1-stimulated values. EC50 values are determined using PRISM software (Table 2).

[1] abbreviates: read-out: EC50 in the cholesterol efflux assay (RCT in vitro assay).

Like-named read-outs stand apart in the source and are kept apart here. *1 amine or outer side, *2 acyl side, *3 side chain or, on linkers, in order; H or OH if unused. Where a SMILES comes first, the peptide text is derived from it. [ ]: non-standard residue; d: D form. Leu(5,5,5,5',5',5'-F6) = N[C@@H](CC(C(F)(F)F)C(F)(F)F)C(=O)O; dNle(6-ylidene) = O=C([C@@H](CCCC=[*:3])N[*:1])[*:2]; Gly(oct-7-en-1-yl) = C=CCCCCCC[C@H](N)C(=O)O; Ala(5-hexenyl) = C=CCCCCC[C@H](N)C(=O)O; Gla = N[C@@H](CC(C(=O)O)C(=O)O)C(=O)O; Gly(octyl) = CCCCCCCC[C@H](N)C(=O)O; X6 = CCCCCCC[C@H](N[*:1])C(=O)[*:2]

T1 sequence (P41233 whole entry): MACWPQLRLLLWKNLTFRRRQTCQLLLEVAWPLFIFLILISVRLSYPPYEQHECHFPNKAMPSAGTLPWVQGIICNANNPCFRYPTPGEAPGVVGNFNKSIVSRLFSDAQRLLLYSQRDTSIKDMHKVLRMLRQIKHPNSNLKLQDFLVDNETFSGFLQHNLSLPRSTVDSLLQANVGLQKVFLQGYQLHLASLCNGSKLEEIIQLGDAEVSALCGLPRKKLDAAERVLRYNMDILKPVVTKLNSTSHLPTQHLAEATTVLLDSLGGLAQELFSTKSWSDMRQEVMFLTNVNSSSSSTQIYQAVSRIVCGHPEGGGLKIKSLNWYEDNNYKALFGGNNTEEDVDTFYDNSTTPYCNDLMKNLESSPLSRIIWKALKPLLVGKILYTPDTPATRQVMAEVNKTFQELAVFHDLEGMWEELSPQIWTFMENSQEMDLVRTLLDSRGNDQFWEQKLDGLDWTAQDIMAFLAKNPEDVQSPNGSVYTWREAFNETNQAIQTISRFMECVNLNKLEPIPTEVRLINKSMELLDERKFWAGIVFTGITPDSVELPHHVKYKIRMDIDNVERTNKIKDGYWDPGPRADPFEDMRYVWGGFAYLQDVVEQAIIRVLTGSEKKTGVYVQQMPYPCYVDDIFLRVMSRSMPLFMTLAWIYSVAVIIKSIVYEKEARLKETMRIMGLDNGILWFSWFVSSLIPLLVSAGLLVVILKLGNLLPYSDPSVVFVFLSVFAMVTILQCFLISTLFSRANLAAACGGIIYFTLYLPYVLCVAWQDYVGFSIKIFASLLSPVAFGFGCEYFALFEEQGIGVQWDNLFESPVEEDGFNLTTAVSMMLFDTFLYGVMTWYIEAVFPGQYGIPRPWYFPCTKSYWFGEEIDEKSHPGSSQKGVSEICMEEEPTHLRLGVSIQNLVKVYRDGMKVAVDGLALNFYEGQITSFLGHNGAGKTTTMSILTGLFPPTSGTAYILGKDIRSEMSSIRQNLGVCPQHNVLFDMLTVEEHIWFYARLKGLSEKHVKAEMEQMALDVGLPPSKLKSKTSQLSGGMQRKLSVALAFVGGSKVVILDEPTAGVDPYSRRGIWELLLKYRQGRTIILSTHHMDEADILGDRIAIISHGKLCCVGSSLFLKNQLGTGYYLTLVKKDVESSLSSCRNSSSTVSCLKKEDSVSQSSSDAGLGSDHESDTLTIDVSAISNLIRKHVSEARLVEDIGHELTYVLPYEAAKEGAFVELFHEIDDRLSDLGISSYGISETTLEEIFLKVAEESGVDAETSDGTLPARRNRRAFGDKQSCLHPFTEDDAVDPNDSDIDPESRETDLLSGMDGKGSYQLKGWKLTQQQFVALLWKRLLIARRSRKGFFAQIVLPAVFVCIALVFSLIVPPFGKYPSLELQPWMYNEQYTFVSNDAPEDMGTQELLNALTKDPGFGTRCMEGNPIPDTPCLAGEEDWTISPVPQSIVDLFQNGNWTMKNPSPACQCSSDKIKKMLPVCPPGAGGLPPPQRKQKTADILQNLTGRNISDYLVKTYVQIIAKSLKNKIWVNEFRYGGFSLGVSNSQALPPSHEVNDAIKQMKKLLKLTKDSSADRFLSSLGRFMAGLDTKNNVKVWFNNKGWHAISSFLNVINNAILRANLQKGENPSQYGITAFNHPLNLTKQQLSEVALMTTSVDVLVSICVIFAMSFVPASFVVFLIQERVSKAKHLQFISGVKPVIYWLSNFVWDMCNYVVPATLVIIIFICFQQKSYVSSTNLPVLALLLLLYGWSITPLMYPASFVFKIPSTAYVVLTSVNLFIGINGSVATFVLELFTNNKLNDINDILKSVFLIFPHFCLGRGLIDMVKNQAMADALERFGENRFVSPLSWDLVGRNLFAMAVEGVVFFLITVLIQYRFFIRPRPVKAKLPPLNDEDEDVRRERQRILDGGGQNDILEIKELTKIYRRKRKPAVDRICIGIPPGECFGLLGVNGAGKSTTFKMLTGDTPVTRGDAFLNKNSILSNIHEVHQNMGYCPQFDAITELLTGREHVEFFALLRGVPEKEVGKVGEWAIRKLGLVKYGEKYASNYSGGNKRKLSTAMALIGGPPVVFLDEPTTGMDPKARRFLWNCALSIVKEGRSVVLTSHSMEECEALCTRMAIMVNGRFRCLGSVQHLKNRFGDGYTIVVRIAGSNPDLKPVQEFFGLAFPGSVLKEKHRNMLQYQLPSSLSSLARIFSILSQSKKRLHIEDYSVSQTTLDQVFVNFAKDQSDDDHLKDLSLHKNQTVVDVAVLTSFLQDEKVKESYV

For the molecule `C=CCCCCC[C@H](NC(=O)[C@H](CCC(=O)O)NC(=O)[C@H](CC(N)=O)NC(=O)[C@H](CC(C)C)NC(=O)[C@H](CCCCN)NC(=O)[C@H](CCC(=O)O)NC(=O)[C@H](CCCNC(=N)N)NC(=O)[C@H](Cc1ccccc1)NC(=O)[C@H](CCC(=O)O)NC(=O)[C@H](CC(=O)O)NC(=O)[C@H](CC(C)C)NC(=O)[C@@H](NC(=O)[C@@H]1CCCN1C(C)=O)C(C)C)C(=O)N[C@@H](CC(C)C)C(=O)N[C@@H](CCC(=O)O)C(=O)N[C@@H](C)C(=O)N[C@@H](CC(C)C)C(=O)N[C@@H](CCCCN)C(=O)N[C@@H](CCC(N)=O)C(=O)N[C@@H](CCCCN)C(=O)N[C@@H](CC(C)C)C(=O)N[C@@H](CCCCN)C(N)=O` [SEQ ID NO 29, PVLDEFREKLNES7HLEALKQKLK] (Ac-PVLDEFREKLNE[Ala(5-hexenyl)]LEALKQKLK-NH2), under setting [1], the EC50 (in general, the concentration needed to bring the measured effect to its halfway point) was determined as 2000 nM.

As for `C=CCCCCCC[C@H](NC(=O)[C@H](CCC(=O)O)NC(=O)[C@H](CC(N)=O)NC(=O)[C@H](CC(C)C)NC(=O)[C@H](CCCCN)NC(=O)[C@H](CCC(=O)O)NC(=O)[C@H](CCCN=C(N)N)NC(=O)[C@H](Cc1ccccc1)NC(=O)[C@H](CCC(=O)O)NC(=O)[C@H](CC(=O)O)NC(=O)[C@H](CC(C)C)NC(=O)[C@@H](NC(=O)[C@@H]1CCCN1C(C)=O)C(C)C)C(=O)N[C@@H](CC(C)C)C(=O)N[C@@H](CCC(=O)O)C(=O)N[C@@H](C)C(=O)N[C@@H](CC(C)C)C(=O)N[C@@H](CCCCN)C(=O)N[C@@H](CCC(N)=O)C(=O)N[C@@H](CCCCN)C(=O)N[C@@H](CC(C)C)C(=O)N[C@@H](CCCCN)C(N)=O` [SEQ ID NO 32, PVLDEFREKLNES8HLEALKQKLK] (Ac-PVLDEFREKLNE[Gly(oct-7-en-1-yl)]LEALKQKLK-NH2), the EC50 under setting [1] amounted to 600 nM.

As for `CCCCCCC[C@H](NC(=O)[C@H](CCC(=O)O)NC(=O)[C@H](CC(N)=O)NC(=O)[C@H](CC(C)C)NC(=O)[C@H](CCCCN)NC(=O)[C@H](CCC(=O)O)NC(=O)[C@H](CCCN=C(N)N)NC(=O)[C@H](Cc1ccccc1)NC(=O)[C@H](CCC(=O)O)NC(=O)[C@H](CC(=O)O)NC(=O)[C@H](CC(C)C)NC(=O)[C@@H](NC(=O)[C@@H]1CCCN1C(C)=O)C(C)C)C(=O)N[C@@H](CC(C)C)C(=O)N[C@@H](CCC(=O)O)C(=O)N[C@@H](C)C(=O)N[C@@H](CC(C)C)C(=O)N[C@@H](CCCCN)C(=O)N[C@@H](CCC(N)=O)C(=O)N[C@@H](CCCCN)C(=O)N[C@@H](CC(C)C)C(=O)N[C@@H](CCCCN)C(N)=O` [SEQ ID NO 34, PVLDEFREKLNES7H3LEALKQKLK] (Ac-PVLDEFREKLNE[X6]LEALKQKLK-NH2), the concentration for a half-maximal effect (EC50) under setting [1] stood at 600 nM.

For `CCCCCCCC[C@H](NC(=O)[C@H](CCC(=O)O)NC(=O)[C@H](CC(N)=O)NC(=O)[C@H](CC(C)C)NC(=O)[C@H](CCCCN)NC(=O)[C@H](CCC(=O)O)NC(=O)[C@H](CCCN=C(N)N)NC(=O)[C@H](Cc1ccccc1)NC(=O)[C@H](CCC(=O)O)NC(=O)[C@H](CC(=O)O)NC(=O)[C@H](CC(C)C)NC(=O)[C@@H](NC(=O)[C@@H]1CCCN1C(C)=O)C(C)C)C(=O)N[C@@H](CC(C)C)C(=O)N[C@@H](CCC(=O)O)C(=O)N[C@@H](C)C(=O)N[C@@H](CC(C)C)C(=O)N[C@@H](CCCCN)C(=O)N[C@@H](CCC(N)=O)C(=O)N[C@@H](CCCCN)C(=O)N[C@@H](CC(C)C)C(=O)N[C@@H](CCCCN)C(N)=O` [SEQ ID NO 35, PVLDEFREKLNES8H3LEALKQKLK] (Ac-PVLDEFREKLNE[Gly(octyl)]LEALKQKLK-NH2), the half-maximal effective concentration (EC50) under setting [1] came to 300 nM.

In the case of `CC(=O)N1CCC[C@H]1C(=O)N[C@H](C(=O)N[C@@H](CC(C)C)C(=O)N[C@@H](CC(=O)O)C(=O)N[C@@H](CCC(=O)O)C(=O)N[C@@H](Cc1ccccc1)C(=O)N[C@@H](CCCNC(=N)N)C(=O)N[C@@H](CCC(=O)O)C(=O)N[C@@H](CCCCN)C(=O)N[C@@H](CC(C)C)C(=O)N[C@@H](CC(N)=O)C(=O)N[C@@H](CCC(=O)O)C(=O)N[C@@H](CC(C(F)(F)F)C(F)(F)F)C(=O)N[C@@H](CC(C)C)C(=O)N[C@@H](CCC(=O)O)C(=O)N[C@@H](C)C(=O)N[C@@H](CC(C)C)C(=O)N[C@@H](CCCCN)C(=O)N[C@@H](CCC(N)=O)C(=O)N[C@@H](CCCCN)C(=O)N[C@@H](CC(C)C)C(=O)N[C@@H](CCCCN)C(N)=O)C(C)C` [SEQ ID NO 41, PVLDEFREKLNE-HFLEU-LEALKQKLK] (Ac-PVLDEFREKLNE[Leu(5,5,5,5',5',5'-F6)]LEALKQKLK-NH2; C-terminus assumed), the 50% effective concentration (EC50) under setting [1] stood at 1100 nM.

With `C=CCCCCC[C@H](NC(=O)[C@H](CCC(=O)O)NC(=O)[C@H](CC(N)=O)NC(=O)[C@H](CC(C)C)NC(=O)[C@H](CCCCN)NC(=O)[C@H](CCC(=O)O)NC(=O)[C@H](CCCN=C(N)N)NC(=O)[C@H](Cc1ccccc1)NC(=O)[C@H](CCC(=O)O)NC(=O)[C@H](CC(=O)O)NC(=O)[C@H](CC(C)C)NC(=O)[C@H](CCCCCC=C)NC(=O)[C@@H]1CCCN1C(C)=O)C(=O)N[C@@H](CC(C)C)C(=O)N[C@@H](CCC(=O)O)C(=O)N[C@@H](C)C(=O)N[C@@H](CC(C)C)C(=O)N[C@@H](CCCCN)C(=O)N[C@@H](CCC(N)=O)C(=O)N[C@@H](CCCCN)C(=O)N[C@@H](CC(C)C)C(=O)N[C@@H](CCCCN)C(N)=O` [SEQ ID NO 42, PS7HLDEFREKLNES7HLEALKQKLK] (Ac-P[Ala(5-hexenyl)]LDEFREKLNE[Ala(5-hexenyl)]LEALKQKLK-NH2), under setting [1], the concentration giving a half-maximal response (EC50) stood at 300 nM.

Take `C=CCCCCC[C@H](NC(=O)[C@H](CCC(N)=O)NC(=O)[C@H](CCCCN)NC(=O)[C@H](CC(C)C)NC(=O)[C@H](C)NC(=O)[C@H](CCC(=O)O)NC(=O)[C@H](CC(C)C)NC(=O)[C@H](CCCCCC=C)NC(=O)[C@H](CCC(=O)O)NC(=O)[C@H](CC(N)=O)NC(=O)[C@H](CC(C)C)NC(=O)[C@H](CCCCN)NC(=O)[C@H](CCC(=O)O)NC(=O)[C@H](CCCN=C(N)N)NC(=O)[C@H](Cc1ccccc1)NC(=O)[C@H](CCC(=O)O)NC(=O)[C@H](CC(=O)O)NC(=O)[C@H](CC(C)C)NC(=O)[C@@H](NC(=O)[C@@H]1CCCN1C(C)=O)C(C)C)C(=O)N[C@@H](CC(C)C)C(=O)N[C@@H](CCCCN)C(N)=O` [SEQ ID NO 44, PVLDEFREKLNES7HLEALKQS7HLK] (Ac-PVLDEFREKLNE[Ala(5-hexenyl)]LEALKQ[Ala(5-hexenyl)]LK-NH2): under setting [1], the EC50 stood at 600 nM.

As to `C=CCCCCC[C@H](NC(=O)[C@H](CCC(=O)O)NC(=O)[C@H](CC(N)=O)NC(=O)[C@H](CC(C)C)NC(=O)[C@H](CCCCN)NC(=O)[C@H](CCC(=O)O)NC(=O)[C@H](CCCNC(=N)N)NC(=O)[C@H](Cc1ccccc1)NC(=O)[C@H](CCC(=O)O)NC(=O)[C@H](CC(=O)O)NC(=O)[C@H](CC(C)C)NC(=O)[C@@H](NC(=O)[C@@H]1CCCN1C(C)=O)C(C)C)C(=O)N[C@@H](CC(C)C)C(=O)N[C@@H](CC(C(=O)O)C(=O)O)C(=O)N[C@@H](C)C(=O)N[C@@H](CC(C)C)C(=O)N[C@@H](CCCCN)C(=O)N[C@@H](CCC(N)=O)C(=O)N[C@@H](CCCCN)C(=O)N[C@@H](CC(C)C)C(=O)N[C@@H](CCCCN)C(N)=O` [SEQ ID NO 47, PVLDEFREKLNES7HL-GLA-ALKQKLK] (Ac-PVLDEFREKLNE[Ala(5-hexenyl)]L[Gla]ALKQKLK-NH2; C-terminus assumed), the EC50 under setting [1] was 700 nM.

Take `CCCCCCC[C@H](NC(=O)[C@H](CCC(=O)O)NC(=O)[C@H](CC(N)=O)NC(=O)[C@H](CC(C)C)NC(=O)[C@H](CCCCN)NC(=O)[C@H](CCC(=O)O)NC(=O)[C@H](CCCNC(=N)N)NC(=O)[C@H](CCCCCCC)NC(=O)[C@H](CCC(=O)O)NC(=O)[C@H](CC(=O)O)NC(=O)[C@H](CC(C)C)NC(=O)[C@@H](NC(=O)[C@@H]1CCCN1C(C)=O)C(C)C)C(=O)N[C@@H](CC(C)C)C(=O)N[C@@H](CCC(=O)O)C(=O)N[C@@H](C)C(=O)N[C@@H](CC(C)C)C(=O)N[C@@H](CCCCN)C(=O)N[C@@H](CCC(N)=O)C(=O)N[C@@H](CCCCN)C(=O)N[C@@H](CC(C)C)C(=O)N[C@@H](CCCCN)C(N)=O` [SEQ ID NO 50, PVLDES7H3REKLNES7H3LEALKQKLK] (Ac-PVLDE[X6]REKLNE[X6]LEALKQKLK-NH2; C-terminus assumed): the EC50 under setting [1] amounted to 300 nM.

With `C=CCCC[C@@H](NC(=O)[C@H](CCC(=O)O)NC(=O)[C@H](CC(N)=O)NC(=O)[C@H](CC(C)C)NC(=O)[C@@H](CCCC=C)NC(=O)[C@H](CCC(=O)O)NC(=O)[C@H](CCCNC(=N)N)NC(=O)[C@H](Cc1ccccc1)NC(=O)[C@H](CCC(=O)O)NC(=O)[C@H](CC(=O)O)NC(=O)[C@H](CC(C)C)NC(=O)[C@@H](NC(=O)[C@@H]1CCCN1C(C)=O)C(C)C)C(=O)N[C@@H](CC(C)C)C(=O)N[C@@H](CCC(=O)O)C(=O)N[C@@H](C)C(=O)N[C@@H](CC(C)C)C(=O)N[C@@H](CCCCN)C(=O)N[C@@H](CCC(N)=O)C(=O)N[C@@H](CCCCN)C(=O)N[C@@H](CC(C)C)C(=O)N[C@@H](CCCCN)C(N)=O` [compound 9] (Ac-PVLDEFRE[dNle(6-ylidene)]LNE[dNle(6-ylidene)]LEALKQKLK-NH2; C-terminus assumed), under “read-out: ABCA1-DEPENDENT CHOLESTEROL EFFLUX EC50”, the EC50 stood at 46000 nM.
